Assay results from patent US20040101915A1, “Diagnosis and treatment of chemoresistant tumors” (IRM LLC, a Delaware Limited Liability Company, priority 2002, published 2004).

Tests used:
[1] = system: DR5 protein levels in DOHH2 cells; details: 4.25 μM etoposide, Western blot
Method: Western blot analysis was used to evaluate protein expression. Cells (2.4×10^6 well) were seeded in 6 well plates and treated with the respective apoptosis stimuli. After the indicated time periods cells were washes in ice cold PBS and lysed in 1% Triton X-100 containing hypotonic lysis buffer (20 mM HEPES pH 7.5, 10 mM KCl, 1.5 mM MgCl2, 1 mM EDTA and 1 mM DTT). Protein (40 μg) was electorphoresed under reducing conditions on 10-20% gradient SDS-polyacrylamide gels. After electroblotting on nitrocellulose membranes (Schleicher and Schuell) the membranes were blocked for 1 h with 10% non-fat milk powder and immunoblotted for 1 h with the following primary antibodies: rabbit anti-DR5 polyclonal antibody (1:500, Cayman Chemicals), mouse anti-Fas monoclonal antibody CH-11 (MBL), rabbit anti-caspase-3 polyclonal antibody (1:1000, Pharmingen), rabbit anti-caspase-8 polyclonal antibody (1:1000, Pharmingen), mouse anti-caspase-9 monoclonal antibody 5B4 (1:1000, MBL), mouse anti-bcl-2 monoclonal antibody (1:500, Pharmingen) or goat anti-actin polyclonal antibody (1:200, Santa Cruz Biotechnology). Membranes were washed five times with TBS/0.05% Tween, incubated with the respective peroxidase conjugated affinity purified secondary antibody (1:5000, Biorad) for 30 min, washed again five times and developed using enhanced chemiluminescence (ECL, Amersham).

K422 cells [2] = test: MTT cytotoxicity assay, K422 cells; assay type: cell-based, human; details: for difference in IC50 concentrations in K422 cells compared to the other cell lines tested: 24 hours, MTT, other lines DOHH2, Jurkat, Jurkat bcl-2, RL-7
Method: An MTT cytotoxicity assay was used to determine the number of viable cells following treatment with various apoptotic stimuli. Cells (100 μl of a 8×10^5 cells/ml suspension) were added to each well of a 96 well plate and incubated with etoposide or doxorubicin for 24-72 h. MTT dye solution was then added for 4 h, the blue crystal product was solubilized over night at 37° C. and absorbance was measured at 570 nm. Because the MTT assay also measures growth arrest, the MTT results were verified with caspase activity assays.

RL-7 cells = test: MTT cytotoxicity assay, RL-7 cells; assay type: cell-based, human; details: etoposide 0.425 μM 4 hours then agonistic anti-DR5 antibodies 12 hours
DOHH2 cells = test: MTT cytotoxicity assay, DOHH2 cells; assay type: cell-based, human; details: etoposide 0.425 μM 4 hours then agonistic anti-DR5 antibodies 12 hours, compared to drug or antibody alone
K422 cells [3] = test: Western blot analysis of caspase processing in treated FL cells; assay type: cell-based, human; details: 100 nM; for processing of caspase-8: DOHH2, K422 and RL-7; for caspase processing of the caspases-2, -3, -7 and -9: K422 versus DOHH2 and RL-7
From the text: Western blot analysis was used to evaluate protein expression.

K422 cells [4] = test: Morphological examination of treated FL cells; assay type: cell-based, human; details: FL cells DOHH2, K422, RL-7
K422 cells [5] = test: Caspase activity assay (AFC release from DEVD-AFC) in lysates of treated cells; assay type: cell-based, human; details: 100 nM
Method: Caspase activities were assayed as previously described (Stennicke and Salvesen, 2000) at 37° C. in 40 μl of caspase buffer (50 mM HEPES pH 7.4, 100 mM NaCl, 10% sucrose, 1 mM EDTA, 0.1% CHAPS and 10 mM DTT) containing 100 μM of the fluorogenic peptide Ac-DEVD-AFC. Activity was measured continuously over the indicated time by the release of AFC from DEVD-AFC using a Molecular Devices fluorometer in the kinetic mode and with the 405-510 filter pair. For the assessment of caspase activity in intact cells after treatment with different apoptosis stimuli 10-20 μg of total cell protein (Triton X-100 extracts) was used in 40 μl of caspase buffer (containing 100 μM DEVD-AFC). For in-vitro initiation of caspase activity by cytochrome c Triton X-100 free, hypotonic cytosolic extracts were prepared and 10 μM horse heart cytochrome c (Sigma) together with 1 mM dATP or recombinant active caspase-8 (20 nM) were used for caspase activation (Deveraux et al., 1997). For reconstitution of RL-7 hypotonic cell extracts recombinant pro-caspase-3 was used as previously described (Stennicke et al., 1998).

NCI 60 tumor cell panel = details: NCI database; cited from earlier work

| Structure (SMILES) | DR5 protein levels following exposure [1] | effect of etoposide pretreatment on apoptosis induced by anti-DR5 antibody (K422 cells [2]; K422, etoposide 0.425 μM 4 hours then agonistic anti-DR5 antibodies 12 hours) | effect of etoposide pretreatment on apoptosis induced by anti-DR5 antibody (RL-7 cells) | effect of etoposide pretreatment on apoptosis induced by anti-DR5 antibody (DOHH2 cells) | difference in IC50 concentrations in K422 cells compared to the other cell lines tested (K422 cells [2]) | processing of caspase-8 (K422 cells [3]) | caspase processing of the caspases-2, -3, -7 and -9 (K422 cells [3]) | classical features of apoptosis (morphology) (K422 cells [4]) | caspase activation (enzymatic activity) (K422 cells [5]) | sensitivity of NCI 60 tumor cell panel (NCI 60 tumor cell panel) |
| --- | --- | --- | --- | --- | --- | --- | --- | --- | --- | --- |
| COc1cccc2c1C(=O)c1c(O)c3c(c(O)c1C2=O)C[C@@](O)(C(=O)CO)C[C@@H]3O[C@H]1C[C@H](N)[C@H](O)[C@H](C)O1 [doxorubicin] | significantly increased |  |  |  |  |  |  |  |  |  |
| COc1cc([C@@H]2c3cc4c(cc3[C@@H](O[C@@H]3O[C@@H]5CO[C@@H](C)O[C@H]5[C@H](O)[C@H]3O)[C@H]3COC(=O)[C@H]23)OCO4)cc(OC)c1O [etoposide] | significantly increased | negligible effect | negligible effect | significantly increased apoptosis |  |  |  |  |  |  |
| CO[C@@H]1[C@H]([N+](C)(C)C)CC2O[C@]1(C)n1c3ccccc3c3c4c(c5c6ccccc6n2c5c31)C(=O)NC4 [Staur-F3] |  |  |  |  | 25 fold | remained unprocessed in all of the cell lines | only in K422 but not DOHH2 or the caspase-3 deficient RL-7 cells | only K422 exhibited the classical features of apoptosis | induced caspase activation |  |
| C[C@H]1CCC/C=C/[C@@H]2C[C@H](O)C[C@H]2[C@H](O)/C=C/C(=O)O1 [Brefeldin A] |  |  |  |  | 6 fold | remained unprocessed in all of the cell lines | only in K422 but not DOHH2 or the caspase-3 deficient RL-7 cells | only K422 exhibited the classical features of apoptosis | induced caspase activation | one of the most sensitive cell lines is NCI/ADR |
